≈ marks a conversion by molar mass, not a printed value.
What was measured:
in vivo [1] = conditions: male, Sprague-Dawley, rat, po
in vivo [2] = conditions: Beagle, dog, po
[3] = Plasma protein binding in mouse at 5 uM measured after 4 hrs by LC-MS/MS analysis
in vivo [4] = conditions: male, Sprague-Dawley, rat, iv, 0.5 mg/kg
[5] = Inhibition of embelin-induced migration of rat neutrophils preincubated for 30 mins followed by embelin addition and measured after 1 hr by celltiter-glo assay; conditions: Neutrophil
in vivo [6] = conditions: Balb/c, mouse, plasma, po, 10 mg/kg
[7] = Thermodynamic solubility of compound at pH 3; conditions: buffer
in vitro [8] = conditions: rat, liver microsomes
in vitro [9] = conditions: mouse, cryopreserved hepatocytes
in vivo [10] = conditions: Balb/c, mouse, plasma, po, 3 mg/kg
in vivo [11] = conditions: male, Sprague-Dawley, rat, po; remark: listed apart in the source
physchem [12] = conditions: aqueous solution with 2% DMSO, pH 3
in vivo [13] = conditions: CD1, mouse, po, 5 mg/kg
[14] = Volume of distribution at steady state in male Sprague-Dawley rat at 0.5 mg/kg, iv administered as single bolus dose using PEG-200/NaCl formulation measured after 24 hrs by LC-MS/MS analysis; conditions: in vivo
[15] = Initial plasma concentration in male Sprague-Dawley rat at 0.5 mg/kg, iv administered as single bolus dose using PEG-200/NaCl formulation measured after 24 hrs by LC-MS/MS analysis
[16] = Plasma protein binding in human at 5 uM measured after 4 hrs by LC-MS/MS analysis
[17] = Half-life in CD1 mouse at 1 mg/kg, iv administered as single bolus dose using PEG-200/saline formulation measured after 24 hrs by LC-MS/MS analysis; conditions: in vivo
in vivo [18] = conditions: CD1, mouse, po, 5 mg/kg; remark: listed apart in the source
Description: Half-life in CD1 mouse at 5 mg/kg, po administered as single esophageal gavage dose post 12 hr fasting using PEG-200/water formulation measured after 24 hrs by LC-MS/MS analysis

physchem [19] = conditions: aqueous solution with 2% DMSO, pH 7.4
in vivo [20] = conditions: CD1, mouse, po, 5 mg/kg; remark: listed apart in the source
[21] = Initial plasma concentration in CD1 mouse at 1 mg/kg, iv administered as single bolus dose using PEG-200/saline formulation measured after 24 hrs by LC-MS/MS analysis
[22] = Volume of distribution at steady state in CD1 mouse at 1 mg/kg, iv administered as single bolus dose using PEG-200/saline formulation measured after 24 hrs by LC-MS/MS analysis; conditions: in vivo
in vivo [23] = conditions: male, Sprague-Dawley, rat, po; remark: listed apart in the source
in vitro [24] = conditions: human, cryopreserved hepatocytes
in vivo [25] = conditions: Beagle, dog, po; remark: listed apart in the source
[26] = Plasma protein binding in rat at 5 uM measured after 4 hrs by LC-MS/MS analysis
in vitro [27] = conditions: dog, liver microsomes
Cytochrome P450 3A4 [28] = molecular target: T1, Cytochrome P450 3A4 (Homo sapiens, UniProt P08684); assay: Inhibition of human CYP3A4 in human liver microsomes using testosterone as substrate and in presence of co-factor preincubated for 20 mins followed by substrate addition by LC-MS/MS analysis
Cytochrome P450 3A4 [29] = molecular target: T1, Cytochrome P450 3A4; assay: Time-dependent inhibition of CYP3A4 in human liver microsomes using midazolam as substrate and in presence of co-factor by LC-MS/MS analysis
Cytochrome P450 1A2 = molecular target: T2, Cytochrome P450 1A2 (Homo sapiens, UniProt P05177); assay: Inhibition of CYP1A2 in human liver microsomes using probe substrate and in presence of co-factor preincubated for 20 mins followed by substrate addition by LC-MS/MS analysis
T2 sequence (P05177 whole entry): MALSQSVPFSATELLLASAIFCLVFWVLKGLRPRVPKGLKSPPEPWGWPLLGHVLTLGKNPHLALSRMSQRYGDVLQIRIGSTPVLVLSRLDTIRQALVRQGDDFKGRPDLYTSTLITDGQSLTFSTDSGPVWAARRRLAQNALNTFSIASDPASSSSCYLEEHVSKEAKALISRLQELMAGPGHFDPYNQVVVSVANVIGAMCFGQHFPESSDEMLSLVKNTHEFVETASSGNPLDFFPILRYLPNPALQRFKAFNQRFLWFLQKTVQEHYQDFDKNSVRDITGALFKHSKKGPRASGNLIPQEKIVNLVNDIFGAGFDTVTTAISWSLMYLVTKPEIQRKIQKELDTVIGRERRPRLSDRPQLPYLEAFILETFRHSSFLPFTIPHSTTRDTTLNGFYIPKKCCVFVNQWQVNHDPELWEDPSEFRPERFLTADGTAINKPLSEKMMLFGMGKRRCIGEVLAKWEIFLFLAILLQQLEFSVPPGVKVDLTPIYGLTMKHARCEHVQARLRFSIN

Mus musculus = species: Mus musculus; assay: Antiinflammatory activity in Balb/cj mouse model of DSS-induced colitis assessed as minimum effective dose; conditions: read-out: MED
Cytochrome P450 3A4 [30] = molecular target: T1, Cytochrome P450 3A4; assay: Inhibition of CYP3A4 in human liver microsomes using midazolam as substrate and in presence of co-factor preincubated for 20 mins followed by substrate addition by LC-MS/MS analysis
in vivo [31] = conditions: Balb/cj, mouse, plasma, po, 10 mg/kg
in vivo [32] = conditions: CD1, mouse, po, 5 mg/kg; remark: listed apart in the source
[33] = Clearance in CD1 mouse at 1 mg/kg, iv administered as single bolus dose using PEG-200/saline formulation measured after 24 hrs by LC-MS/MS analysis; conditions: in vivo
in vivo [34] = conditions: Beagle, dog, po; remark: listed apart in the source
[35] = Half life in Beagle dog at 0.5 mg/kg, iv administered as 10 mins infusion via catheter by LC-MS/MS analysis; conditions: in vivo
in vivo [36] = conditions: Balb/c, mouse, plasma, po, 10 mg/kg; remark: listed apart in the source
in vitro [37] = conditions: mouse, cryopreserved hepatocytes; remark: listed apart in the source
in vitro [38] = conditions: rat, cryopreserved hepatocytes
in vivo [39] = conditions: Balb/c, mouse, plasma, po, 3 mg/kg; remark: listed apart in the source
Neutrophil = assay: Inhibition of dog neutrophil cell migration; conditions: Canis lupus familiaris
[40] = Half-life in plasma of Balb/c mouse model of DSS-induced colitis at 3 mg/kg, po administered using PEG-200/water formulation starting from day 1 to 11 measured by LC-MS analysis

T1 sequence (P08684 whole entry): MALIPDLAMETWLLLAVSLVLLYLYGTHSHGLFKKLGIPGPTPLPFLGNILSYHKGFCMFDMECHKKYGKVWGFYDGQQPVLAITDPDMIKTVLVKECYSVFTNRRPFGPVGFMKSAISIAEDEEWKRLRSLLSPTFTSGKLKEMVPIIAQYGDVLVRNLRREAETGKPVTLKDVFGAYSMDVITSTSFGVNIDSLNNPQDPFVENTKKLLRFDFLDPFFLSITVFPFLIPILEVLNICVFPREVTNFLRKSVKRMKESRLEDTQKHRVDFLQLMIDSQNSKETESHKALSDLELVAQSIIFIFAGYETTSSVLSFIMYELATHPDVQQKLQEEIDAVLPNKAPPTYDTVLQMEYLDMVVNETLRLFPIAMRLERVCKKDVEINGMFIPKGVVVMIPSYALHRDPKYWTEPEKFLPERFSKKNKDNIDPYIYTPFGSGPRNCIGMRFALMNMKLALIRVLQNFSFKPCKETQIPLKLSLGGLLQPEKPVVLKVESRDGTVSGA

Compound `O=c1nc(OC[C@@H]2COCCO2)cc2n1CCc1cc(C#CC3CC3)ccc1-2` [GLPG-1205] has an AUC(0-t) at 24 h (in vivo [1]) of 4470 ng·h/mL, a Cmax (in vivo [2]) of 558 ng/mL and a fraction unbound at 4 h, 5 µM [3] of 0.022. The AUC(0-t) at 24 h (in vivo [4]) was 710 ng·h/mL, the IC50 [5] was 0.111 µM and the AUC(0-t) at 24 h (in vivo [6]) was 50400 ng·h/mL. The solubility thermodynamic [7] was 12.6 µg/mL (≈ 33.3 µM), the CLint scaled at 0.5 h, 1 µM (in vitro [8]) was 66.7 mL/min/kg and the half-life at 1 µM (in vitro [9]) was over 3.33 h. It also gave an AUC(0-t) at 24 h (in vivo [10]) of 5560 ng·h/mL, a Cmax at 24 h (in vivo [11]) of 1160 ng/mL and a solubility (physchem [12]) of 113 µg/mL (≈ 299 µM). It also gave a Tmax at 24 h (in vivo [13]) of 0.5 h, a Vd at 24 h [14] of 1.2 L/kg and a C0 at 24 h [15] of 395 ng/mL. It also gave a fraction unbound at 4 h, 5 µM [16] of 0.028, a half-life at 24 h [17] of 0.6 h and a half-life at 24 h (in vivo [18]) of 1.9 h. The solubility (physchem [19]) was 113 µg/mL (≈ 299 µM), the bioavailability at 24 h (in vivo [20]) was over 100% and the C0 at 24 h [21] was 1230 ng/mL. For the same compound, the Vd at 24 h [22] was 0.6 L/kg, the bioavailability at 24 h (in vivo [23]) was over 100% and the CLint scaled at 1 µM (in vitro [24]) was under 21.3 mL/min/kg. For the same compound, the Tmax (in vivo [25]) was 0.5 h, the fraction unbound at 4 h, 5 µM [26] was 0.023 and the CLint scaled at 0.5 h, 1 µM (in vitro [27]) was 89 mL/min/kg. The IC50 (Cytochrome P450 3A4 [28]) was over 50 µM, the IC50 (Cytochrome P450 3A4 [29]) was over 50 µM and the IC50 (Cytochrome P450 1A2) was over 100 µM. For the same compound, the minimal effective dose (Mus musculus) was 3 mg/kg, the IC50 (Cytochrome P450 3A4 [30]) was over 50 µM and the Cmax (in vivo [31]) was 8140 ng/mL. For the same compound, the AUC(0-t) at 24 h (in vivo [32]) was 15300 ng·h/mL, the clearance at 24 h [33] was 15 mL/min/kg and the bioavailability (in vivo [34]) was over 100%. For the same compound, the half-life at […] [35] was 1.4 h, the Tmax (in vivo [36]) was 1 h and the CLint scaled at 1 µM (in vitro [37]) was under 72.8 mL/min/kg. It also gave a CLint scaled at 1 µM (in vitro [38]) of under 33.3 mL/min/kg, a Tmax (in vivo [39]) of 1 h and an IC50 (Neutrophil) of 0.075 µM. It also gave a half-life [40] of 2.9 h.

Source: ChEMBL document CHEMBL4673243, “Discovery of 9-Cyclopropylethynyl-2-((S)-1-[1,4]dioxan-2-ylmethoxy)-6,7-dihydropyrimido[6,1-a]isoquinolin-4-one (GLPG1205), a Unique GPR84 Negative Allosteric Modulator Undergoing Evaluation in a Phase II Clinical Trial” (J Med Chem, 2020)
